According to patent publication US20230355674A1, “DONOR T-CELLS WITH KILL SWITCH” (CSL Behring LLC, priority 2020, published 2023):
“Also recorded” adds a separate entry of the source.

What was measured:
[1] = MTX dose response in 6-TG selected CEM cells; type: cell-based; details: human, wild type CEM T cell leukemia cells, 0.5 μM MTX, thymidine 16 μM, read-out: viable wild type (WT) cells
Description: CEM T cell leukemia cells modified by 8 guide RNAs targeting the HPRT1 gene were cultured for 1 week in the presence of 10 μM 6-TG, replenished with fresh 6-TG every 48-72 hours. Following the selection period and confirmation of HPRT protein reduction, the CEM cells were tested for their sensitivity to a dose range of […], methotrexate (MTX) for 3 days in the presence of thymidine 16 μM (T1895 Sigma).

[2] = test system: CEM cells; experiment: Negative selection with MTX or MPA, transduced or transfected CEM cells; type: cell-based; details: 0.3 μM of MTX, day 0 to day 14
Description: Transduced or transfected CEM cells (such as those from Example 1) were cultured with or without MTX from day 0 to day 14. The medium was refreshed every 3 to 4 days. GFP was analyzed on flow machine and InDel % was analyzed by T7E1 assay.

[3] = test system: K562 cells; experiment: Negative selection with MTX, transduced or transfected K562 cells; type: cell-based, human; details: 0.3 μM of MTX
Description: Transduced or transfected K562 cells (such as those from Example 1) were cultured with or without MTX from day 0 to day 14. The medium was refreshed every 3 to 4 days. GFP was analyzed on a flow machine and the InDel % was analyzed by T7E1 assay. […] On the other hand, the population of cells was steady without MTX. FIG. 14B illustrates that the transfected K562 cells were eliminated under treatment with 0.3 μM of MTX at a faster pace as compared with the HPRT-knockdown population.

[4] = test system: HPRT protein; experiment: Western blot of HPRT protein in gRNA modified CEM cells; type: cell-based, human
Description: (§1) CEM T cell leukemia cells were electroporated (1600V, 10 ms pulse width, 3 pulses by using the Neon Transfection system) with ribonucleoprotein (RNP) complexes containing guide RNA (see Example 21) designed in-house and obtained from Integrated DNA Technologies (IDT), together with Cas9 and tracrRNA. Cells confirmed to be transfected with the gRNA via the use of the tracr RNA (24 hours post electroporation) were purified using fluorescence activated cells sorting (FACS) prior to culture for a further 72 hours, followed by assessment of cell survival when challenged with increasing concentrations of 6-thioguanine (6-TG) compared to wild type (unmodified) CEM cells.
Unmodified and modified CEM cells were also used for isolation of protein and detection of the HPRT protein using Western blot (FIG. 39, top panel). […] Actin protein detection (FIG. 39, bottom panel) was used as a protein loading control.
as §1, with “(gRNA; legend)” for “(see Example 21)”, “10 days in the presence” for “a further 72 hours, followed by assessment”, “10 uM 6-TG, replenished” for “cell survival when challenged”, “fresh 6-TG every 48-72 hours.” for “increasing concentrations of 6-thioguanine (6-TG) compared to wild type (unmodified) CEM cells.”
Following the selection period, protein was extracted from each cell and used for western blot-based detection of the HPRT protein. Detection of beta-actin was used as a protein loading control (Actin Antibody (ACTBD11B7): sc-81178. Santa Cruz).

[5] = test system: CEM T cell leukemia cells; experiment: 6-TG dose response of gRNA modified CEM cells 72 hours after electroporation; type: cell-based; details: 72 hours culture, 6-TG tested up to 40 μM, vs unmodified
Description: as §1

[6] = test system: HPRT1 gene; experiment: ICE scoring (indel, knockout score) of gRNA editing in CEM cells; type: cell-based, human
Text: The top candidate guide RNAs from Example 21 were screen in Jurkat cell lines (n=1) and validated in CEM cell lines (n=2). For instance, Jurkat cells were electroporated with a ribonucleoprotein (RNP) complex containing guide RNA (e.g. an RNP including a guide RNA having any one of SEQ ID NOS: 40-49) together with the Cas9 and tracrRNA. The methodology and analysis was the same for both Jurkat cell lines and CEM cell lines (see also, FIG. 37). Following electroporation, cell viability was measured at different concentrations of 6-TG (see FIG. 36).
(§2) Indel Percentage—The editing efficiency (percentage of the pool with non-wild type sequence) as determined by comparing the edited trace to the control trace. In the ICE algorithm, potential editing outcomes are proposed and fitted to the observed data using linear regression.
(§3) Knockout Score—Represents the proportion of cells that have either a frameshift or 21+bp indel. This score is a useful measure for those who are interested in understanding how many of the contributing indels are likely to result in a functional Knockout (KO) of the targeted gene.
as §1

[7] = test system: HPRT protein; experiment: Western blot of HPRT protein in gRNA modified primary T cells; type: cell-based, human; details: 72 hours after electroporation
[8] = test system: primary human T cells; experiment: 6-TG resistance of gRNA modified primary human T cells (viability); type: cell-based; details: donors #9 and #10, 1 uM 6-TG, day 8 and day 13, vs unmodified
Text: FIG. 44 illustrates a method of modifying primary T-cells in accordance with one embodiment of the present disclosure. FIGS. 45A-45C illustrate 6-TG dose responses seven days following the modification of the primary T-cells in accordance with the modification methods described herein. In particular, FIGS. 45A and 45B illustrate the targeting of Exon 3 (guide RNA 13) and Exon 8 (guide RNA 21). The references “#9” and “#10” denote T-cell number and UT control (electroporated without RNP). FIG. 45C illustrates unmodified cells from donor #9 and donor #10 tested with increasing concentrations of 6-TG (day 4). It was observed that the […] primary T-cells were very sensitive to low doses of 6-TG. ICE Scores are shown below.
(§4) Peripheral blood mononuclear cells (PBMC) were isolated from Australian Red Cross Blood donor samples (n=2) via density centrifugation. […] By day 7, the original mixed PBMC population was determined to be primarily CD3+ T cells (flow cytometry; data not shown).
The cells were then cultured for about 7 and about 12 days in the presence of 1 uM 6-TG, with 6-TG replenished every about 2 to about 3 days. At each of these time points, the cells were assessed for the proportion of viable cells compared to untreated (UT) controls.

[9] = test system: HPRT1 gene; experiment: ICE scoring (indel, knockout score) of gRNA editing in primary T cells; type: cell-based; details: primary human T cells
Text: as §2, §3
FIG. 44 illustrates a method of modifying primary T-cells in accordance with one embodiment of the present disclosure. FIGS. 45A-45C illustrate 6-TG dose responses seven days following the modification of the primary T-cells in accordance with the modification methods described herein. In particular, FIGS. 45A and 45B illustrate the targeting of Exon 3 (guide RNA 13) and Exon 8 (guide RNA 21). The references “#9” and “#10” denote T-cell number and UT control (electroporated without RNP). […]
as §4

[10] = test system: CEM T cell leukemia cells; experiment: 6-TG selection and 6-TG challenge of gRNA modified CEM cells (cell viability); type: cell-based; details: CEM, 10 μM 6-TG for 1 week, vs wild-type
Description: Cells confirmed to be transfected with the gRNA via the use of the tracr RNA (24 hours post electroporation) were purified using fluorescence activated cells sorting (FACS) prior to culture in 10 μM 6-TG for 1 week replenished with fresh 6-TG every 48-72 hours.
After 10 days in the presence of 10 uM 6-TG, replenished with fresh 6-TG every 48-72 hours, each cell line was challenged with increasing concentrations of 6-thioguanine (6-TG) and cell viability was compared to wild type (unmodified) CEM cells (see FIG. 40B).

[11] = test system: primary human T cells; experiment: MTX dose response in 6-TG selected primary human T cells; type: cell-based; details: primary human T cells after 12 days 1 μM 6-TG, MTX dose range 2 days, thymidine 16 μM
Description: Primary human T cells modified using guide RNAs targeting the HPRT1 gene and subsequently placed under selection pressure for 12 days with 1 μM 6-TG, with 6-TG replenished every 2 to 3 days, were subjected to a dose range of MTX in the presence of thymidine 16 μM for 2 days and assessed for cell viability.

Row | Molecule | viability at 3 days, 0.5 µM [1] | HPRT knockout population of CEM cells [2] | GFP population of transduced (HPRT knockdown) cells ([2]; CEM cells) | GFP population of transduced (HPRT knockdown) K562 cells ([3]; day 0 to day 14) | transfected (HPRT knockout) K562 cells ([3]; day 0 to day 14, compared with HPRT-knockdown population) | HPRT protein (Western blot) ([4]; 72 hours post-electroporation, no 6-TG selection, listed as guide 21) | HPRT protein (Western blot) ([4]; after 10 days of 6-TG selection (10 uM)) | resistance to 6-TG challenge (cell survival) [5] | editing (ICE scoring), in words [6] | HPRT protein (Western blot) [7] | proportion of viable cells under 6-TG [8] | knockout efficiency (ICE scoring) [9] | cell viability under 6-TG selection [10] | sensitivity to MTX compared to wild-type non-modified cells (UT) [11]
1 | CN(Cc1cnc2nc(N)nc(N)c2n1)c1ccc(C(=O)N[C@@H](CCC(=O)O)C(=O)O)cc1 [MTX, methotrexate] | 60% | eliminated at a faster pace | decreased | decreased | eliminated | – | – | – | – | – | – | – | – | –
2 | gRNA 21: sgRNA guide and PAM TATCCTACAACAAACTTGTCTGG, HPRT 1 target Exon 8 (listed as DNA, chemistry not given here) | – | – | – | – | – | reduced compared to wildtype; also recorded: detectable levels of HPRT protein | limited to no detectable levels of HPRT | intermediate resistance | efficient editing | residual HPRT protein was observed | increased viability | about 1% | more variable viability | increased sensitivity to MTX
